Laboratory results from ChEMBL document CHEMBL4118220, “Design, synthesis and biological evaluation of phosphopeptides as Polo-like kinase 1 Polo-box domain inhibitors” (Bioorg Med Chem, 2018).
pIC50: −log10 of the molar value. Square brackets hold non-standard residues; d marks the D form. Peptide text beside a SMILES is read from it. Phe(4-NO2) = N[C@@H](Cc1ccc([N+](=O)[O-])cc1)C(=O)O; Phe(3,4-Cl2) = N[C@@H](Cc1ccc(Cl)c(Cl)c1)C(=O)O; Phe(4-F) = N[C@@H](Cc1ccc(F)cc1)C(=O)O; pT = C[C@@H](OP(=O)(O)O)[C@H](N)C(=O)O

Legend:
[1] = target: Serine/threonine-protein kinase PLK3 (Homo sapiens, UniProt Q9H4B4); experiment: Inhibition of FITC-GPLATSpTPKNG-OH binding to Plk3 PBD (unknown origin) after 30 mins by fluorescence polarization assay
Sequence of Serine/threonine-protein kinase PLK3 (Q9H4B4 whole entry): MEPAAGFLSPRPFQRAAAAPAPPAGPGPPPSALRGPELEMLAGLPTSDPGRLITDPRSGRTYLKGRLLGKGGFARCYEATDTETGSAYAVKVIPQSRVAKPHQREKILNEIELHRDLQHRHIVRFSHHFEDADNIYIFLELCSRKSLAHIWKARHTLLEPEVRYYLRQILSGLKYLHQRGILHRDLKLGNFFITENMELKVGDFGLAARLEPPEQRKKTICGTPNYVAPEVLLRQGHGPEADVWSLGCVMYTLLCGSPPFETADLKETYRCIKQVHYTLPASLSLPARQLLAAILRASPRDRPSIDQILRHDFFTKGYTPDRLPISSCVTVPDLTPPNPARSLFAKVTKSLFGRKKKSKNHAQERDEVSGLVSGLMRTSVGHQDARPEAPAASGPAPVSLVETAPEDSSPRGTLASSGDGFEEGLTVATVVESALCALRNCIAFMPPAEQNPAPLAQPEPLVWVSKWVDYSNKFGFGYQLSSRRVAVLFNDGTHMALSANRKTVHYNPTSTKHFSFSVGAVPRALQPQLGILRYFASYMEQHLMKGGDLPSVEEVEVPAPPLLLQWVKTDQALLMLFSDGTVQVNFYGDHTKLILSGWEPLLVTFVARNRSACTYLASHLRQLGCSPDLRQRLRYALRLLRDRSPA

[2] = target: Serine/threonine-protein kinase PLK2 (Homo sapiens, UniProt Q9NYY3); experiment: Inhibition of FITC-GPMQTSpTPKNG-OH binding to Plk2 PBD (unknown origin) after 30 mins by fluorescence polarization assay
Sequence of Serine/threonine-protein kinase PLK2 (Q9NYY3 whole entry): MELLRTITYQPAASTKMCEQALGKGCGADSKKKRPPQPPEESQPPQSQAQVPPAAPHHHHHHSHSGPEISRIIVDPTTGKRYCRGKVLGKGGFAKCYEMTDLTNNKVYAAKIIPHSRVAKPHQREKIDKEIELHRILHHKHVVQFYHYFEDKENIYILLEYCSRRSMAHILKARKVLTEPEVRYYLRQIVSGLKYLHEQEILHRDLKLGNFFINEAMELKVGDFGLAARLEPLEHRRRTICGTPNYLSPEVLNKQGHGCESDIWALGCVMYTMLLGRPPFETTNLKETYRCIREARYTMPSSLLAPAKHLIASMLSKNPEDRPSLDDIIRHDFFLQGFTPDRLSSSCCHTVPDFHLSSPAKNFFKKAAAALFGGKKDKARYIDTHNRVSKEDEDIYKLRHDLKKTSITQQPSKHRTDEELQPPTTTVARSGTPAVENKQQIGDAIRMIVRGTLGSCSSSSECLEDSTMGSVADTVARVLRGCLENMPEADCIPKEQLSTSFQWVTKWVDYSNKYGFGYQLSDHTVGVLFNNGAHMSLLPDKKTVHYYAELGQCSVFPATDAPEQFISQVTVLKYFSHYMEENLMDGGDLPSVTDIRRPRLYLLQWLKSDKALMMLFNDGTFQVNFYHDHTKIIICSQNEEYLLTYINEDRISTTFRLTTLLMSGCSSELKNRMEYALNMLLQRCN

SMILES | IC50 [1] | IC50 [2] | pIC50 ([2]; read-out: IC50)
CC[C@H](C)[C@H](NC(=O)[C@H](C)NC(=O)[C@@H](NC(=O)[C@H](CO)NC(=O)[C@H](Cc1cnc[nH]1)NC(=O)[C@H](CC(C)C)NC(=O)[C@@H]1CCCN1C(=O)[C@@H]1CCCN1C(=O)[C@H](CC(=O)O)NC(=O)[C@H](Cc1ccc(Cl)c(Cl)c1)NC(=O)[C@H](CCC(N)=O)NC(C)=O)[C@@H](C)O)C(=O)N[C@@H](Cc1ccc(O)cc1)C(=O)N[C@@H](C)C(=O)N[C@@H](CC(N)=O)C(N)=O (Ac-Q[Phe(3,4-Cl2)]DPPLHSTAIYAN-NH2) | Not Active | Not Active | –
CC[C@H](C)[C@H](NC(=O)[C@H](C)NC(=O)[C@@H](NC(=O)[C@H](CO)NC(=O)[C@H](Cc1cnc[nH]1)NC(=O)[C@H](CC(C)C)NC(=O)[C@@H]1CCCN1C(=O)[C@@H]1CCCN1C(=O)[C@H](CC(=O)O)NC(=O)[C@H](Cc1ccc(Cl)c(Cl)c1)NC(=O)[C@@H](NC(C)=O)[C@@H](C)O)[C@@H](C)OP(=O)(O)O)C(=O)N[C@@H](Cc1ccc(O)cc1)C(=O)N[C@@H](C)C(=O)N[C@@H](CC(N)=O)C(N)=O (Ac-T[Phe(3,4-Cl2)]DPPLHS[pT]AIYAN-NH2) | Not Active | Not Active | –
CC[C@H](C)[C@H](NC(=O)[C@H](C)NC(=O)[C@@H](NC(=O)[C@H](CO)NC(=O)[C@H](Cc1cnc[nH]1)NC(=O)[C@H](CC(C)C)NC(=O)[C@@H]1CCCN1C(=O)[C@@H]1CCCN1C(=O)[C@H](CC(=O)O)NC(=O)[C@H](Cc1ccc(Cl)c(Cl)c1)NC(C)=O)[C@@H](C)OP(=O)(O)O)C(=O)N[C@@H](Cc1ccc(O)cc1)C(=O)N[C@@H](C)C(=O)N[C@@H](CC(N)=O)C(N)=O (Ac-[Phe(3,4-Cl2)]DPPLHS[pT]AIYAN-NH2) | Not Active | – | 6.15

The next lines start with the values.

IC50 [1] | IC50 [2] | pIC50 ([2]; read-out: IC50) | SMILES
Not Active | Not Active | – | CC[C@H](C)[C@H](NC(=O)[C@H](C)NC(=O)[C@@H](NC(=O)[C@H](CO)NC(=O)[C@H](Cc1cnc[nH]1)NC(=O)[C@H](CC(C)C)NC(=O)[C@@H]1CCCN1C(=O)[C@@H]1CCCN1C(=O)[C@H](CC(=O)O)NC(=O)[C@H](Cc1ccc(F)cc1)NC(=O)[C@@H](NC(=O)[C@H](CCC(N)=O)NC(C)=O)[C@@H](C)O)[C@@H](C)OP(=O)(O)O)C(=O)N[C@@H](Cc1ccc(O)cc1)C(=O)N[C@@H](C)C(=O)N[C@@H](CC(N)=O)C(N)=O (Ac-QT[Phe(4-F)]DPPLHS[pT]AIYAN-NH2)
Not Active | Not Active | – | CC[C@H](C)[C@H](NC(=O)[C@H](C)NC(=O)[C@@H](NC(=O)[C@H](CO)NC(=O)[C@H](Cc1cnc[nH]1)NC(=O)[C@H](CC(C)C)NC(=O)[C@@H]1CCCN1C(=O)[C@@H]1CCCN1C(=O)[C@H](CC(=O)O)NC(=O)[C@H](Cc1ccc([N+](=O)[O-])cc1)NC(=O)[C@@H](NC(=O)[C@H](CCC(N)=O)NC(C)=O)[C@@H](C)O)[C@@H](C)OP(=O)(O)O)C(=O)N[C@@H](Cc1ccc(O)cc1)C(=O)N[C@@H](C)C(=O)N[C@@H](CC(N)=O)C(N)=O (Ac-QT[Phe(4-NO2)]DPPLHS[pT]AIYAN-NH2)
